Results from US11198680B2 (BioAxone BioSciences, Inc., priority 2016, dated 2021).
Like-named read-outs stand apart in the source and are kept apart here.

Columns and labels:
[1] = target: SERT (serotonin transporter) (Homo sapiens (Human), UniProt P31645); assay: SAFETYscan neurotransmitter transporter activity; format: cell-based
Protocol: (§1) The SAFETYscan™ (DiscoverX) is used for rapid testing of any compound against a panel that includes well-known membrane proteins of importance for drug development such as selected voltage-gated ion channels, G-protein coupled receptors, neurotransmitter transporters and also a selected group of purified cellular enzymes.
(§2) Cell lines engineered to express individual transmembrane receptor proteins such as the muscarinic acetylcholine receptor or the dopamine D1 receptor were grown in culture in their standard growth medium until reaching confluence. […] The experiment also contains controls for comparison including known agonists and antagonists of the targeted membrane proteins.

[2] = target: NET (norepinephrine transporter) (Homo sapiens (Human), UniProt P23975); assay: SAFETYscan neurotransmitter transporter activity; format: cell-based
Protocol: as §1, §2

[3] = system: intracellular ROCK activity (ppMLC2 T18/S19) in HUVECs; assay: HUVEC ppMLC2 dose-response; format: cell-based, human; conditions: for EC50: 1 h exposure, read-out: EC50 for reduction of MLC2 diphosphorylation; for maximum reduction of ppMLC2 levels: highest dose tested 1 mM, 1 h
Protocol: Cells were exposed to each dose for 1 h. All experiments were conducted in triplicate and analyzed by 2 independent assessors blinded to the compound and compound concentration.
Cells were subjected to biochemical protein analysis of di-phosphorylated MLC2 (Threonine 18/Serine 19 phosphorylation sites) using SDS-PAGE and immunoblotting. Cells were plated in a 24-well tissue culture plates, coated with 70 μg/ml rat collagen-1 (Corning) and grown for 2-3 days at 37° C./5% CO2 until confluency. […] Drugs were diluted in Medium 200 (Thermo Fisher Scientific) supplemented with 0.1% human serum albumin (HSA, Sigma-Aldrich). After 1 h, cells were lysed with RIPA buffer (Boston Bioproducts; Ashland, Mass.) supplemented with complete protease/phosphatase inhibitors (HALT, Thermo Fisher Scientific), reduced, and denatured with Laemmli sample buffer (BioRad)/beta-mercaptoethanol. Denatured samples were electrophoresed in reducing 10% Bis-Tris-PA gels (Novex) and then transferred onto 0.25 μm PVDF membranes (EMD Millipore). Membranes were incubated with 4% bovine serum albumin solution to block unspecific antibody binding sites and then immunolabeled for ppMLC2 T18/S19 (1:500, Cell Signaling) and glyceraldehyde 3-phosphate dehydrogenase loading control (GAPDH, 1:10,000; Abcam). Protein levels were detected using a chemiluminescence substrate (Super Signal West, ThermoFisher) and were captured with FluoroChem SP imaging system. Chemiluminescence of ppMLC2 and GAPDH was measured by densitometric analysis. ppMLC2 signal was normalized against GAPDH signal plotted as percentage of no treatment control (0 μM). EC50 values were determined by dose-response analysis using GraphPad software.

MEK2 = MEK2 (Homo sapiens (Human), UniProt P36507); assay: KINOMEscan kinome screen; conditions: percent of negative control binding
Text: (§3) The KINOMEscan™ screening platform (DiscoverX, Fremont, Calif.) employs a novel active site-directed competition binding assay to quantitatively measure interactions between test compounds and more than 450 human kinases and disease relevant mutant variants. […] Compounds that bind the kinase active site and directly (sterically) or indirectly (allosterically) prevent kinase binding to the immobilized ligand, will reduce the amount of kinase captured on the solid support. […] Screening “hits” are identified by measuring the amount of kinase captured in test versus control samples by using a quantitative, precise and ultra-sensitive qPCR method that detects the associated DNA label.
(§4) Kinase-tagged T7 phage strains were grown in parallel in 24-well blocks in an E. coli host derived from the BL21 strain. E. coli were grown to log-phase and infected with T7 phage from a frozen stock (multiplicity of infection=0.4) and incubated with shaking at 32° C. until lysis (90-150 minutes). The lysates were centrifuged (6,000×g) and filtered (0.2 μm) to remove cell debris. The remaining kinases were produced in HEK-293 cells and subsequently tagged with DNA for qPCR detection (Wein, et al. (2016) Nat. Comm. 7). […] Test compounds were prepared as 40× stocks in 100% DMSO and directly diluted into the assay. All reactions were performed in polypropylene 384-well plates in a final volume of 0.02 ml.

MARK2 = MARK2 (Homo sapiens (Human), UniProt Q7KZI7); assay: KINOMEscan kinome screen; conditions: percent of negative control binding
Text: as §3, §4

MARK4 = MARK4 (Homo sapiens (Human), UniProt Q96L34); assay: KINOMEscan kinome screen; conditions: percent of negative control binding
Text: as §3, §4

MARK3 = MARK3 (Homo sapiens (Human), UniProt P27448); assay: KINOMEscan kinome screen; conditions: percent of negative control binding
Text: as §3, §4

MEK1 = MEK1 (Homo sapiens (Human), UniProt Q02750); assay: KINOMEscan kinome screen; conditions: percent of negative control binding
Text: as §3, §4

ALK = ALK (Homo sapiens (Human), UniProt Q9UM73); assay: KINOMEscan kinome screen; conditions: percent of negative control binding
Text: as §3, §4

MARK1 = MARK1 (Homo sapiens (Human), UniProt Q9P0L2); assay: KINOMEscan kinome screen; conditions: percent of negative control binding
Text: as §3, §4

IRAK3 = IRAK3 (Homo sapiens (Human), UniProt Q9Y616); assay: KINOMEscan kinome screen; conditions: percent of negative control binding
Text: as §3, §4

FGFR4 = FGFR4 (Homo sapiens (Human), UniProt P22455); assay: KINOMEscan kinome screen; conditions: percent of negative control binding
Text: as §3, §4

PRKCQ = PRKCQ (Homo sapiens (Human), UniProt Q04759); assay: KINOMEscan kinome screen; conditions: percent of negative control binding
Text: as §3, §4

SLK = SLK (Homo sapiens (Human), UniProt Q9H2G2); assay: KINOMEscan kinome screen; conditions: percent of negative control binding
Text: as §3, §4

[4] = Brain concentration after IV BA-1049 (R), LC-MS/MS; format: in vivo; conditions: mouse
Protocol: Mice are dosed either by intravenous (IV) administration or oral (PO) administration via oral gavage.
After IV dosing, brains are collected from 4 mice at each time point: 0.083 hr, 0.5 hr, 2 hr, 6 hr, 12 hr, and 24 hr after dose. Each mouse is euthanized by CO2. The entire brains are removed, weighed, rinsed with PBS, placed in tubes, and snap frozen in liquid nitrogen.
Brain tissue was homogenized in 1 mL/g PBS. Brain homogenates are precipitated by pipetting 200 μL of homogenate into a tube using aseptically cut off 1000 μL pipette tips to prevent clogging.

[5] = Systolic blood pressure in mice, tail cuff plethysmography; conditions: 0.5, 1, 3 mg/kg in drinking water; Example 18, present tense
Protocol: Three test cohorts of mice are housed with unlimited access to normal chow and drinking water. For the first 5 days, the mice are handled daily to habituate them to contact and their blood pressures measured using a multi-animal tail cuff plethysmography apparatus (MRBP Tail Cuff Blood Pressure System; IITC Life Science; Woodland Hills, Calif.). […] These values serve as the baseline.
The third cohort receives normal, unadulterated drinking water. On day 8, blood pressure is measured for all mice.
After the day 8 blood pressure measurement, drug dosage in the 2 test cohorts is increased to 1 mg/kg-body weight and the cohort continues for 3 days at the new dose. On day 11, blood pressure is again recorded by tail cuff plethysmography for all mice during a 5 min. recording session.
Following the blood pressure recording, ON DAY 11, drug dosages in drinking water of test groups are increased up to 3 mg/kg-body weight and the cohorts continue for 3 days at the new dose. On day 14, blood pressure is recorded by tail cuff plethysmography for all mice during a 5 min. recording session.

mouse hepatocytes = assay: Metabolism in cultured hepatocytes; format: in vitro ADME
ROCK1 [6] = target: T1, ROCK1 (Homo sapiens (Human), UniProt Q13464); assay: Direct filter-binding radiometric kinase assay, IC50 determination; format: biochemical
Protocol: Variations in ATP concentrations were tested to better understand potential selectivity in ischemic and diseased tissue where ATP concentrations may be low and impact selectivity.
[…] Both services use a direct filter-binding, radiometric kinase assay with slight variation in protocol.
The top concentration tested was 100 μM for both services. Test compounds were prepared in 100% DMSO at 50× final test concentration and were diluted to 1× in the assay with a final DMSO concentration of 2%.
For one assay, the substrate […] (SEQ ID NO:1) (30 μM) was mixed with reaction buffer (Table 4) and the kinase domain from either the ROCK1 or ROCK2 (as indicated in Table 4). Next, the compounds (in DMSO) were delivered into the mixture via acoustic mixing technology (Echo550, nanoliter range) (SelectScience, Waltham, Mass.), and incubated at RT for 20 min. […] Reactions were then spotted onto P81 ion exchange paper followed by scintillation counting.
The reaction was stopped by the addition of 3% phosphoric acid and 10 μL of the reaction was spotted onto P30 filtermat, washed 3 times in 75 mM phosphoric acid and once in methanol prior to scintillation counting.

ROCK1 [7] = target: T1, ROCK1; assay: biochemical
Protocol: The assay is performed by combining the DNA-tagged kinase, immobilized ligand, and a test compound. The ability of the test compound to compete with the immobilized ligand is measured via quantitative PCR of the DNA tag.
The highest concentration tested was 30 μM.

T1 sequence (Q13464 2-1354 limits assumed): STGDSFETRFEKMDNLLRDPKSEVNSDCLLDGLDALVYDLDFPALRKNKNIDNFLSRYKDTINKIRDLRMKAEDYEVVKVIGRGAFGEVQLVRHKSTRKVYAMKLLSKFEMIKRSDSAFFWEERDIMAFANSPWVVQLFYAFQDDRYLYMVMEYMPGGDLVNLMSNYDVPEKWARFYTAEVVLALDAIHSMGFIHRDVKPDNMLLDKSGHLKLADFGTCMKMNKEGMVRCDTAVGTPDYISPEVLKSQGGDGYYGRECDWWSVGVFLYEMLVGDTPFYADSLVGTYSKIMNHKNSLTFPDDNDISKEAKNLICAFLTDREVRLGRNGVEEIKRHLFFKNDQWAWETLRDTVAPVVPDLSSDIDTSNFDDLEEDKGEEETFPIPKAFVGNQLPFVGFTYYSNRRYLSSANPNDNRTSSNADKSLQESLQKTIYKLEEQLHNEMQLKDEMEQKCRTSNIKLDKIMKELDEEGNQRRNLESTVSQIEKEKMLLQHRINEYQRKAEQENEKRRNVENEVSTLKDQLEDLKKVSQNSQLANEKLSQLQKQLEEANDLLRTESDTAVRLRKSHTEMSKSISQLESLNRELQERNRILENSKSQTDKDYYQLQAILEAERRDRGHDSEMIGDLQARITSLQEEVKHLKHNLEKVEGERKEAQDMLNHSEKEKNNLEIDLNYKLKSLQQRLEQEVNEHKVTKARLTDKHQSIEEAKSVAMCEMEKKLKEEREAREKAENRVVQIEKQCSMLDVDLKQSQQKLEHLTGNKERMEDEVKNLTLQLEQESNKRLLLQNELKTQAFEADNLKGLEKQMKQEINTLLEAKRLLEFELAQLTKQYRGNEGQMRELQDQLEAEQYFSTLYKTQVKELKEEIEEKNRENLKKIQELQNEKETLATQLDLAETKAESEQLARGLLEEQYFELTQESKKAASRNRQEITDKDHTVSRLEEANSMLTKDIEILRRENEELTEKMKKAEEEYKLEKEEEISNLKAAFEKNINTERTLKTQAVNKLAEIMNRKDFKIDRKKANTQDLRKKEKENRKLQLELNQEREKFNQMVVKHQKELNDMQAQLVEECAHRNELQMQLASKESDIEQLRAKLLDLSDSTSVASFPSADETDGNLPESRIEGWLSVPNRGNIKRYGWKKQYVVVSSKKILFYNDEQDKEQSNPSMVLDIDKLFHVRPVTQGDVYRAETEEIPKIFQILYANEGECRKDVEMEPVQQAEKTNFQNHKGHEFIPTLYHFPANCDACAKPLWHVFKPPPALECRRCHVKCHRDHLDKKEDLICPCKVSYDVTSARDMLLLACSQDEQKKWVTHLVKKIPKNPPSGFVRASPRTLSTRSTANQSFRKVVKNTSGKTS
MARK2, sequence (Q7KZI7 whole entry): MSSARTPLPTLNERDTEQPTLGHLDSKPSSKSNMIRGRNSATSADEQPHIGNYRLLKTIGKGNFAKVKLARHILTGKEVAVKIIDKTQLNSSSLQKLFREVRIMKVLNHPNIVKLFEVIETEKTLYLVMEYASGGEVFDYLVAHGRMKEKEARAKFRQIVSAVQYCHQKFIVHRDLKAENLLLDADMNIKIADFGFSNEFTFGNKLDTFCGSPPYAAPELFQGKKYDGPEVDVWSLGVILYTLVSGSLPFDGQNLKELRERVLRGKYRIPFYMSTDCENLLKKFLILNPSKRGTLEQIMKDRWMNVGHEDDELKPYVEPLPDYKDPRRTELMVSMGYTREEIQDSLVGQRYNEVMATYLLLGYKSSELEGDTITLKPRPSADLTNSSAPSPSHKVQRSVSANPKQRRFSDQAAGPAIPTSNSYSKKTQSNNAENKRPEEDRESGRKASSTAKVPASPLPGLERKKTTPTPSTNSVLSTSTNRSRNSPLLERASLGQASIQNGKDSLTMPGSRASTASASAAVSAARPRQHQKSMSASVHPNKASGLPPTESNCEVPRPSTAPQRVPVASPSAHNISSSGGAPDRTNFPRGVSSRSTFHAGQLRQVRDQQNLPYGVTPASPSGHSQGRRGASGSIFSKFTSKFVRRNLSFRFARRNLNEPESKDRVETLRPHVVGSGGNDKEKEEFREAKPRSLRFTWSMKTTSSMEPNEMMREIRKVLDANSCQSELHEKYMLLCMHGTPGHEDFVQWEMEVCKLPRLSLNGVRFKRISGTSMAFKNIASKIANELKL
MARK1, sequence (Q9P0L2 whole entry): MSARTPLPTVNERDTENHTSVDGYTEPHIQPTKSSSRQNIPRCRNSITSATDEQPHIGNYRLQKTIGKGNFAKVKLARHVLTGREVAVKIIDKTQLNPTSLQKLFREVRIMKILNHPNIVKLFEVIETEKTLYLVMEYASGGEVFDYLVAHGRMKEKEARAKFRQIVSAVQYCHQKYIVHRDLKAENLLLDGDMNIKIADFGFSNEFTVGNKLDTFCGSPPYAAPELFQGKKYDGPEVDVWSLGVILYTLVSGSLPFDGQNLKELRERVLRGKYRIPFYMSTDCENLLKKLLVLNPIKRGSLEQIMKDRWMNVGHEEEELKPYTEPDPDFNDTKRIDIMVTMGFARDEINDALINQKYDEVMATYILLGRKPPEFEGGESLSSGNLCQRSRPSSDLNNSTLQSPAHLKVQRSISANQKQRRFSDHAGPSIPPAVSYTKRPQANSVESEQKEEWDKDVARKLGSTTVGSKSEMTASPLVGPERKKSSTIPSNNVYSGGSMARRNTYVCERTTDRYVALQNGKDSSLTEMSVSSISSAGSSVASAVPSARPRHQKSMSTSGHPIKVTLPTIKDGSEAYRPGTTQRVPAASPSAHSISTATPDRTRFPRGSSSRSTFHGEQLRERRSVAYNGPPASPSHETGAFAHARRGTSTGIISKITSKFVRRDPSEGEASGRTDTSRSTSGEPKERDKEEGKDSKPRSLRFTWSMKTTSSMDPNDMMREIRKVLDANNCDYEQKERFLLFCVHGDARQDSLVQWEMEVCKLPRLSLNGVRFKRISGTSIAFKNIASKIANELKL
IRAK3, sequence (Q9Y616 whole entry): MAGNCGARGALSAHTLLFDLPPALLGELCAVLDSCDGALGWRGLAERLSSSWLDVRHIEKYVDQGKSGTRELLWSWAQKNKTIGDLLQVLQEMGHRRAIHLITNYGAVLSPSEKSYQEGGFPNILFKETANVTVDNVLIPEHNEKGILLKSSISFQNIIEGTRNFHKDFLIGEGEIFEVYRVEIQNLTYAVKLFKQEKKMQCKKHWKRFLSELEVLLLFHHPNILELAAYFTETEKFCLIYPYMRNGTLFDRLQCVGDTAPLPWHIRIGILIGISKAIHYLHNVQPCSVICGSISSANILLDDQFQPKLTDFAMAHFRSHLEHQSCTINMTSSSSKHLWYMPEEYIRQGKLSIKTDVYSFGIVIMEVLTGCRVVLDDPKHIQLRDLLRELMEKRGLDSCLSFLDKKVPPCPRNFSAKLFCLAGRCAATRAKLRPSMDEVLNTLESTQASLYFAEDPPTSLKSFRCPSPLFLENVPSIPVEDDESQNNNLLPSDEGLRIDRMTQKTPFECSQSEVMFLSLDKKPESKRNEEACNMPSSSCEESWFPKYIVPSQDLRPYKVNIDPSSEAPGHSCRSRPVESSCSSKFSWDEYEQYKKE
PRKCQ, sequence (Q04759 whole entry): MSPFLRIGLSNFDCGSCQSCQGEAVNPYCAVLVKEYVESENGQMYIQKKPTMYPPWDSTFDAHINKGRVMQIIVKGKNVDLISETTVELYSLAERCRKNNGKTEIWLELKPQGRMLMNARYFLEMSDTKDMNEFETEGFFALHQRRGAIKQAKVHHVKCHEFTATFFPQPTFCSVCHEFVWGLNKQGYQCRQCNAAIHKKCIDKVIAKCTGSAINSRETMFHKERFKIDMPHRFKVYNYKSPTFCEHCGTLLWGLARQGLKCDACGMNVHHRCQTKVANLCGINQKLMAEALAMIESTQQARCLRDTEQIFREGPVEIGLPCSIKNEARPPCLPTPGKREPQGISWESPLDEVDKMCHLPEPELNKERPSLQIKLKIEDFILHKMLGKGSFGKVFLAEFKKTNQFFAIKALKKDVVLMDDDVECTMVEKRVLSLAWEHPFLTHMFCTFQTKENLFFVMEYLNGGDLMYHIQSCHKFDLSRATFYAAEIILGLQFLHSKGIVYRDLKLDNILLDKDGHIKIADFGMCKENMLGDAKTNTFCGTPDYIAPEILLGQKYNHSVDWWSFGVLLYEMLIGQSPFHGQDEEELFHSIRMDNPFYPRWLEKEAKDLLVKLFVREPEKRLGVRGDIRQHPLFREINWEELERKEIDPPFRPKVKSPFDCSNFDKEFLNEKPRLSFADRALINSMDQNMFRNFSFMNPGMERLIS
MEK1, sequence (Q02750 whole entry): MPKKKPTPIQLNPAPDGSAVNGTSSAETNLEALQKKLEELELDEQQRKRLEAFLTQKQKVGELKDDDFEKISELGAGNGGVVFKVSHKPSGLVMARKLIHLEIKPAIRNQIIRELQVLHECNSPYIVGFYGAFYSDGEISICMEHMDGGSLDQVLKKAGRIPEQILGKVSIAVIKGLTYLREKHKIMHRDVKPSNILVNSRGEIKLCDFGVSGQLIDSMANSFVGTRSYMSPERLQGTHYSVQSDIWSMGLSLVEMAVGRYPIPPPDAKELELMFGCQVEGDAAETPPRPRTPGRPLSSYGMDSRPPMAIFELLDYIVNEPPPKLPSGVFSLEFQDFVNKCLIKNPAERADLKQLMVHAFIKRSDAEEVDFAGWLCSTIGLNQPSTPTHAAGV
MEK2, sequence (P36507 whole entry): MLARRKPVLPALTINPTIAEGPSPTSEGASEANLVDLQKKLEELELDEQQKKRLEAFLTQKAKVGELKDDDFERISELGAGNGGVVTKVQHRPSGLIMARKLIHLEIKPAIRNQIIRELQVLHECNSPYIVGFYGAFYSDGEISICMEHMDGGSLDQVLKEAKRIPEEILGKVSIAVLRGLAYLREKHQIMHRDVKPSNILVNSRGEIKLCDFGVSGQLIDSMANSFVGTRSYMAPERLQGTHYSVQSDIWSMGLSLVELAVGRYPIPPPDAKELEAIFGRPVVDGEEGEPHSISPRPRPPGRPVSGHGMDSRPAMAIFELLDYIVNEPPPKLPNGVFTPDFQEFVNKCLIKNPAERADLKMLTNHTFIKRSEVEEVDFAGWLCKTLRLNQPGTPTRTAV

SMILES	maximum reduction of ppMLC2 levels [3]	% Negative Binding, MEK2 (MEK2)	% Negative Binding, MARK2 (MARK2)	% Negative Binding, MARK4 (MARK4)	% Negative Binding, MARK3 (MARK3)	% Negative Binding, MEK1 (MEK1)	% Negative Binding, ALK (ALK)	% Negative Binding, MARK1 (MARK1)	% Negative Binding, IRAK3 (IRAK3)	% Negative Binding, FGFR4 (FGFR4)	% Negative Binding, PRKCQ (PRKCQ)	% Negative Binding, SLK (SLK)	further results
C[C@@H](N)C1CCN(S(=O)(=O)c2cccc3c(=O)[nH]ccc23)CC1 [1-hydroxy-BA-1049 (R)]	94%	97%	100%	92%	81%	100%	81%	69%	96%	100%	66%	100%	% Inhibition of Neurotransmitter Transporter Activity, SERT ([1]; 10 μM): 14%; % Inhibition of Neurotransmitter Transporter Activity, NET ([2]; 10 μM): 11%; EC50 [3]: 0.449 µM; time detectable in brain after administration ([4]; in vivo, iv, 5 mg/kg): < 12 h
C[C@@H](N)C1CCN(S(=O)(=O)c2cccc3cnccc23)CC1 [BA-1049 (R)]	89%	99%	100%	94%	100%	99%	94%	67%	92%	100%	74%	70%	effect on average systolic blood pressure [5]: little or no effect on average systolic blood pressure; ½ Life (mouse hepatocytes): 2.2 min; inhibition at 10 µM ([1]; read-out: % Inhibition of Neurotransmitter Transporter Activity, SERT): 9%; inhibition at 10 µM [2]: 12%; EC50 ([3]; Homo sapiens, HUVEC): 3.83 µM; IC50 (ROCK1 [6]; 10 μM ATP, Table 2, read-out: Compound IC50 ROCK1): 3.9 µM; IC50 (ROCK1 [6]; Compound IC50 ROCK1 10 μM ATP, CRO Eurofins, 10 μM ATP): 3.9 µM; IC50 (ROCK1 [6]; Compound IC50 ROCK1 10 μM ATP, CRO Reaction Biology, 10 μM ATP): 0.69 µM; IC50 (ROCK1 [6]; Compound IC50 ROCK1 70 μM ATP, Km ATP 70 μM, Table 3): 29.6 µM; IC50 (ROCK1 [6]; Compound IC50 ROCK1 70 μM ATP, Km ATP 70 μM, Table 7): 29.6 µM; time detectable in brain after administration ([4]; 5 mg/kg BA-1049 (R) IV): at least 24 hr; Kd (ROCK1 [7]; ROCK1 KD, average of duplicate determinations, Table 5): 0.099 µM; Kd (ROCK1 [7]; ROCK1 Kd, Table 1): 0.11 µM
